Experimental data published in patent publication EP1070454A1, “TRANSGENIC ANIMAL SHOWING VASCULAR TISSUE-SPECIFIC EXPRESSION OF ANGIOTENSIN II2 RECEPTOR” (SUNTORY LIMITED, priority 1999, dated 2000).

Experiments:
[1] = system: cGMP production in isolated aorta; assay: Angiotensin II-induced cGMP production in isolated aorta (radioimmunoassay); assay type: cell-based, mice; conditions: for inhibition of the increase of cGMP production: increase caused by AngII + CV11974; for Angiotensin II-induced cGMP production in isolated aorta: mean ± SE
Text: Then, AngII-induced cGMP production in isolated aortic vessels was compared between transgenic and wild-type mice in order to examine whether or not vasodilator action of AngII is mediated by cGMP. After abdominal incision of each mouse, the abdominal aorta was isolated and the aortic extract homogenized by sonication in ethanol was dried in nitrogen and treated with an acetylation reagent (acetic anhydride : triethylamine = 1:2) and then assayed for cGMP level by radioimmunoassay using an anti cGMP antibody (Table 3). […]

[2] = system: kininogenase; assay: Angiotensin II-induced kininogenase activity in isolated aorta (radioimmunoassay); assay type: biochemical, mice; conditions: for inhibition of the increase of kininogenase activity: increase caused by AngII + CV11974; for Angiotensin II-induced kininogenase activity in isolated aorta: mean ± SE
Procedure: Then, the activity of kininogenase, which is an enzyme for producing bradykinin from kinonogen, was compared between transgenic and wild-type mice in isolated aortic vessels. After abdominal incision of each mouse, the abdominal aorta was isolated and the aortic extract homogenized in the presence of 0.1 M phosphate buffer (0.2% bacitracin, 3 mM O-phenanthroline, 30 mM EDTA-Na2) containing a protease inhibitor was dried in nitrogen under 90% ethanol. The dried extract was solubilized in a buffer containing an angiotensin-converting enzyme inhibitor and tested for kininogenase activity by radioimmunoassay of […] produced from bovine kininogen as a substrate (Table 4).

[3] = system: isolated aorta; assay: Angiotensin II-induced contraction of isolated aorta (rings in myograph); assay type: cell-based, mice; conditions: for Angiotensin II-induced vasoconstriction: isolated abdominal aorta rings, mean ± SE
Procedure: AngII-induced contraction of isolated aortic vessels was compared between transgenic and wild-type mice. After abdominal incision of each mouse, the abdominal aorta was isolated and cut into rings, which were then suspended under a constant tension of 0.8 g in a myograph. Change of vascular tension after addition of AngII was recorded under perfusion with Tyrode's solution (137 mmol/L NaCl, 2.7 mmol/L KCl, 1.8 mmol/L CaCl2, 1.1 mmol/L MgCl2, 0.42 mmol/L NaH2PO4, 12 mmol/L NaHCO3 and 5.7 mmol/L glucose, pH 7.4) (Table 2). AngII-induced contraction of isolated aorta increased by about 24% in AT2-TG mice in the presence of an AT2 receptor inhibitor (PD123319, 1-[[4-(dimethylamino)-3-methylphenyl]methyl]-5-(diphenylacetyl)-4,5,6,7-tetrahydro-1H-imidazo[4,5-c]pyridine-6-carboxylic acid ditrifluoroacetate monohydrate available from PARKE-DAVIS, Ann Arbor, Michigan) as compared with the contraction in its absence.

[4] = Blood pressure change after continuous administration of angiotensin II (tail-cuff method); assay type: in vivo, mice; conditions: for Average blood pressure under administration of angiotensin II: AngII 0.7 mg/day/kg via osmotic pump, mean ± SE
Procedure: Change of average awaking blood pressure induced by chronic administration of angiotensin II (AngII) was compared between transgenic and wild-type mice. AngII (0.7 mg/day/kg) was chronically administered via an osmotic pump embedded in the back of each mouse, and the blood pressure of the mouse was measured at the tail by the tail-cuff method (Table 1). […]

[5] = AT2-TG mice, in the presence of AngII + CV11974 (AT2 receptor stimulation)
[6] = wild-type mice, in the presence of AngII + CV11974 (AT2 receptor stimulation)

**Q.** Which results are given for `CCOc1nc2cccc(C(=O)O)c2n1Cc1ccc(-c2ccccc2-c2nnn[nH]2)cc1` (racemic) [CV11974]?
**A.** increase of amount of cGMP produced in isolated aorta [1, 5]: 105%; change of amount of cGMP produced in isolated aorta [1, 6]: did not change; increase of kininogenase activity in isolated aorta [2, 5]: 150%; change of kininogenase activity in isolated aorta [2, 6]: did not change

**Q.** Which “inhibition of the increase of cGMP production” value ([1]; AT2-TG mice) does the source give for `COC(=O)[C@@H](N)CCCNC(=N)N[N+](=O)[O-]` [L-NAME] here?
**A.** completely inhibited

**Q.** What about the “inhibition of the increase of kininogenase activity” value ([2]; AT2-TG mice) of the same compound?
**A.** completely inhibited

**Q.** What does the source list for `Cc1cc(Cn2cnc3c2CC(C(=O)O)N(C(=O)C(c2ccccc2)c2ccccc2)C3)ccc1N(C)C.O.O=C(O)C(F)(F)F.O=C(O)C(F)(F)F` (stereo not shown) [PD123319, 1-[[4-(dimethylamino)-3-methylphenyl]methyl]-5-(diphenylacetyl)-4,5,6,7-tetrahydro-1H-imidazo[4,5-c]pyridine-6-carboxylic acid ditrifluoroacetate monohydrate]?
**A.** increase of AngII-induced contraction of isolated aorta ([3]; AT2-TG mice, in the presence of PD123319 compared with its absence): about 24%; Angiotensin II-induced vasoconstriction ([3]; AT2-TG mice, with PD123319, relative to its absence): 124±2.1 % of control; Angiotensin II-induced vasoconstriction ([3]; Wild-type mice, with PD123319, relative to its absence): 98±1.1 % of control; change of AngII-induced contraction ([3]; wild-type mice, in the presence of PD123319): no contraction change

**Q.** With “Angiotensin II [AngII, vasopressor whose action is mediated through receptor subtypes AT1 and AT2]” as the compound, how does the “Angiotensin II-induced vasoconstriction” value ([3]; AT2-TG mice, without or with PD123319) read?
**A.** 100±0.2 % of control

**Q.** What about the “Angiotensin II-induced vasoconstriction” value ([3]; Wild-type mice, without or with PD123319) of the same compound?
**A.** 100±0.7 % of control

**Q.** What about the “Angiotensin II-induced cGMP production in isolated aorta” value ([1]; AT2-TG mice) of the same compound?
**A.** 330±41 fmol/gwt

**Q.** And the “Angiotensin II-induced cGMP production in isolated aorta” value ([1]; Wild-type mice)?
**A.** 328±14 fmol/gwt

**Q.** And the “Angiotensin II-induced kininogenase activity in isolated aorta” value ([2]; AT2-TG mice)?
**A.** 0.76±0.07 ng kinin/mg/h

**Q.** What about the “Angiotensin II-induced kininogenase activity in isolated aorta” value ([2]; Wild-type mice) of the same compound?
**A.** 0.68±0.11 ng kinin/mg/h

**Q.** And the “Average blood pressure under administration of angiotensin II” value (“Average blood pressure … of angiotensin II” below) ([4]; AT2-TG mice, Day 0)?
**A.** 85±1.8 mmHg

**Q.** What about the “Average blood pressure … of angiotensin II” value ([4]; AT2-TG mice, Day 4) of the same compound?
**A.** 84±2.7 mmHg

**Q.** What about the “Average blood pressure … of angiotensin II” value ([4]; AT2-TG mice, Day 7) of the same compound?
**A.** 87±2.1 mmHg

**Q.** And the “Average blood pressure … of angiotensin II” value ([4]; AT2-TG mice, Day 14)?
**A.** 89±2.6 mmHg

**Q.** What about the blood pressure change ([4]; AT2-TG mice, after 2 weeks, AngII 0.7 mg/day/kg) of the same compound?
**A.** no blood pressure change

**Q.** And the “Average blood pressure … of angiotensin II” value ([4]; Wild-type mice, Day 0)?
**A.** 83±2.7 mmHg

**Q.** And the “Average blood pressure … of angiotensin II” value ([4]; Wild-type mice, Day 4)?
**A.** 94±2.1 mmHg

**Q.** And the “Average blood pressure … of angiotensin II” value ([4]; Wild-type mice, Day 7)?
**A.** 114±2.8 mmHg

**Q.** What about the “Average blood pressure … of angiotensin II” value ([4]; Wild-type mice, Day 14) of the same compound?
**A.** 121±3.2 mmHg

**Q.** And the “increase in average blood pressure” value ([4]; wild-type mice, after 2 weeks, AngII 0.7 mg/day/kg)?
**A.** 38 mmHg

**Q.** Which “inhibition of the increase of cGMP production” value ([1]; AT2-TG mice) does the source give for icatibant here?
**A.** completely inhibited

**Q.** What about the “inhibition of the increase of kininogenase activity” value ([2]; AT2-TG mice) of the same compound?
**A.** completely inhibited
